From US6506607B1, “Methods and compositions for the identification and assessment of prostate cancer therapies and the diagnosis of prostate cancer” (Millennium Pharmaceuticals, Inc., priority 1997, dated 2003)

System: LNCaP cells
Protocol: After 25 hours of incubation in testosterone-containing medium, the cells were detached from the flasks with trypsin and pelleted. Five T162 flasks of pretreated cells were used as a control. Untreated cells were collected in the same manner.
Total RNA was prepared from the cell pellets using the RNeasy protocol (Qiagen).
The PCR products representing partial cDNAs of putatively differentially expressed mRNAs were subcloned into pCR2.1 (InVitrogen) and transformed into INValphaF^1 cells.
The differentially expressed genes were then identified by screening on a Gene Expression Micro-Array™ (Synteni, Inc.; Fremont, Calif.).
In some cases only a partial sequence is presented in the corresponding figure. The various methods described herein can employ complete sequences or fragments thereof.

SMILES: C[C@]12CC[C@H]3[C@@H](CCC4=CC(=O)CC[C@@]43C)[C@@H]1CC[C@@H]2O [testosterone]
- Fold Increase In mRNA: 54 kDa progesterone receptor-associated immunophilin FKBP54: 2.5
- Fold Increase In mRNA: Ankyrin G (ANK-3) (U13616): 2.7
- Fold Increase In mRNA: Aryl hydrocarbon receptor nuclear translocator: 4.6
- Fold Increase In mRNA: BM28 mRNA/DNA replication licensing factor (huMCM2): 2.4
- Fold Increase In mRNA: Cell division protein kinase 6: 3.1
- Fold Increase In mRNA: Cytochrome b5: 3.3
- Fold Increase In mRNA: ESTs {23605}: 2.5
- Fold Increase In mRNA: ESTs {26259}: 5
- Fold Increase In mRNA: ESTs {32161}: 2.5
- Fold Increase In mRNA: ESTs {41700}: 4
- Fold Increase In mRNA: ESTs {46287}: 3
- Fold Increase In mRNA: ESTs {48537}: 4.5
- Fold Increase In mRNA: ESTs {51591}: 2.3
- Fold Increase In mRNA: ESTs {52371}: 2.6
- Fold Increase In mRNA: ESTs {128055}: 2.8
- Fold Increase In mRNA: ESTs {128990}: 5
- Fold Increase In mRNA: ESTs {131591}: 2.3
- Fold Increase In mRNA: ESTs {135326}: 3.4
- Fold Increase In mRNA: ESTs {141115}: 2.3
- Fold Increase In mRNA: ESTs {151339}: 2.4
- Fold Increase In mRNA: ESTs {174787}: 2.4
- Fold Increase In mRNA: ESTs {177150}: 3.1
- Fold Increase In mRNA: ESTs {180082}: 2.1
- Fold Increase In mRNA: ESTs {195079}: 4.3
- Fold Increase In mRNA: ESTs {221118}: 4.4
- Fold Increase In mRNA: ESTs {230447}: 2.4
- Fold Increase In mRNA: ESTs {242643}: 4.1
- Fold Increase In mRNA: ESTs {249347}: 3.5
- Fold Increase In mRNA: ESTs {264293}: 3
- Fold Increase In mRNA: ESTs {297463}: 2.3
- Fold Increase In mRNA: ESTs {301487}: 3.8
- Fold Increase In mRNA: ESTs {344156}: 5.9
- Fold Increase In mRNA: ESTs {364477}: 2.5
- Fold Increase In mRNA: ESTs {364618}: 2.7
- Fold Increase In mRNA: ESTs {375900}: 3.1
- Fold Increase In mRNA: ESTs {415795}: 2.8
- Fold Increase In mRNA: ESTs {429349}: 3
- Fold Increase In mRNA: ESTs {469725}: 3.7
- Fold Increase In mRNA: ESTs {471083}: 2.6
- Fold Increase In mRNA: ESTs {488092}: 2.5
- Fold Increase In mRNA: EXT1 = putative tumor suppressor/hereditary mult. exostoses candidate gene: 2.4
- Fold Increase In mRNA: Eukaryotic initiation factor 1A: 2.4
- Fold Increase In mRNA: Fibronectin (S00848, transformation-associated human fragment): 2.8
- Fold Increase In mRNA: Gelsolin precursor: 2.8
- Fold Increase In mRNA: Guanine nucleotide exchange factor MSS4 (U74324) (−76 nucleotide): 2.7
- Fold Increase In mRNA: HEK2 protein tyrosine kinase receptor: 2.6
- Fold Increase In mRNA: High mobility group protein HMG1 (X12597): 2.6
- Fold Increase In mRNA: Histone H2AZ: 2.5
- Fold Increase In mRNA: Immunoglobulin rearranged H-chain V-region (C-D-J Hg): 3.6
- Fold Increase In mRNA: KIAA0018 gene (D13643): 3.3
- Fold Increase In mRNA: Kinesin-related protein: 4.8
- Fold Increase In mRNA: L-lactate dehydrogenase M chain (X02152, M17516): 3
- Fold Increase In mRNA: Monoamine oxidase: 5.5
- Fold Increase In mRNA: Myeloblast KIAA0130 gene (D50920): 3.3
- Fold Increase In mRNA: Neprilysin: 2.8
- Fold Increase In mRNA: Phospholipase A2 (M22430): 2.7
- Fold Increase In mRNA: Pyruvate kinase (M26252) = human TCB gene encoding cytosolic thyroid hormone-binding protein: 2.3
- Fold Increase In mRNA: Ras-like GTP-binding protein RAN: 2.6
- Fold Increase In mRNA: S-adenosylmethionine decarboxylase: 2.3
- Fold Increase In mRNA: S-adenosylmethionine decarboxylase proenzyme (M21154): 2.5
- Fold Increase In mRNA: STS (WI 12919): 7.7
- Fold Increase In mRNA: STS (WI-8530): 5
- Fold Increase In mRNA: Simian T-cell lymphotropic virus type I DNA for tax/rex region: 2.3
- Fold Increase In mRNA: Spectrin alpha chain: 3.5
- Fold Increase In mRNA: Thyroid receptor interactor (TRIP7) (L40357) (−92 nucleotide): 2.4
- Fold Increase In mRNA: Tubulin beta 1 chain: 2.8
- Fold Increase In mRNA: UDP glucuronosyltransferase precursor (UGT2B15): 2.8
- Fold Increase In mRNA: UDP-glucuronosyltransferase 2B7 precursor: 3.9
- Fold Increase In mRNA: Vacuolar ATP synthase subunit AC39; or bovine (P17694) NADH-ubiquinone oxidoreductase 49 kD subunit: 3.1
- Fold Increase In mRNA: Yeast guanine nucleotide-binding protein beta subunit-like protein: 2.4
- Fold Increase In mRNA: p0071 protein (X81889): 2.4
